Reference: patent US9447116B2, “Inhibitors of HIV replication” (priority 2010, dated 2016)
Like-named read-outs stand apart in the source and are kept apart here.

What was measured:
[1] = target: T1, LEDGF-Integrase interaction (Human immunodeficiency virus type 1 group M subtype B, UniProt P12497); test: HTRF Interaction assay (S9118); design: species or system HIV; conditions: His6-tagged integrase and MBP-LEDGF integrase binding domain
T1 construct: His6-tagged integrase (78 nM final concentration); purchased Prof; Zeger Debyser, Katholieke Universiteit Leuven (supplied by an academic laboratory, not a commercial vendor)
Description: • Adachi, A., Gendelman, H., Koenig, S., Folks, T., Wiley, R., Rabson, A. and Martin, M (1986) Production of acquired immunodeficency syndrome-associated retrovirus in human and nonhuman cells transfected with an infectious molecular clone, J. Virol., 59, 284-291. • Cao J, Isaacson J, Patick A K, Blair W S. (2005) High-throughput human immunodeficiency virus type 1 (HIV-1) full replication assay that includes HIV-1 Vif as an antiviral target Antimicrobial Agents and Chemotherapy; 49(9), p 3833-3841. Assay to Measure the LEDGF-Integrase Integration Inhibitory Activity of Compounds of the Invention HTRF Interaction Assay (S9118)
An Homogeneous Time Resolved Fluorescence (HTRF) assay is performed in a manner similar to previous reports on HTRF protein assays as reviewed by Mathis (Clin. Chem., 2005). The assay procedure is performed as follows: reactions are performed in 20 μl final volume in 384-well black low volume microtiter plates (Greiner). The final reaction buffer contains 29 mM phosphase buffer (pH 7), 10 mM HEPES buffet (pH 7.4), 68.5 mM NaCl, 1.4 mM KCl, 400 mM KF 0.05% (w/v) pluronic acid (P104, Sigma Aldrich) and 1% (v/v) DMSO. His6-tagged integrase (78 nM final concentration) is incubated with […] fused to the Δ325 carboxy terminal integrase binding domain of LEDGF in the presence of compound for 2 hours at room temperature. Both these protein regents are supplied by Prof. Zeger Debyser of Katholleke Universiteit Leuven, Leuven, Belgium. The compounds are added at varying concentrations spanning a wide range from 0.1 up to 100 μM. Afterwards 8.3 nM of europium cryptate conjugated anti-MBP monoclonal antibody and 17 nM anti-His antibody conjugated with the acceptor fluorophore d2. Following a 2 hour room temperature incubation the plates are read on an EnVision™ microplate reader (Perkin Elmer) using an excitation wavelength of 320 nm. The ratio of fluorescence emitted at […] is used to assess the degree to which the protein-protein interaction had been inhibited.

[2] = tested on: HIV-1 virus (NL4.3 strain); test: MT-2 based antiviral assay (S8737E); assay type: cell-based
Description: MT-2 Based Antiviral Assay (S8737E)
This assay is designed to determine the effects of small molecules on the replication of HIV-1 in the lymphobastoid cell line, MT2, and is able to detect the antiviral effect of compounds acting at any stage of the HIV-1 replication cycle. The assay, along with its associated cytotoxicity assay, was described in detail in 2005 in a paper by Cao et al (Antimicrobial Agents and Chemotherapy 2005; 49(9), p 3833-3841).
MT2 cells are infected with the HIV-1 virus (NL4.3 strain; Adachi et al., Journal of Virology 1986) and transferred to assay plates containing serial dilutions of compounds to be tested. The assay plates are incubated for 3 days (MT2) to allow for several rounds of viral replication/infection to take place. At the end of this time, supernatant is transferred into new plates containing JC53BL cells.
JC53BL cells express CXCR4, CCR5 and CD4 receptors, and HIV-1-LTR-β-Gal. Under normal culture conditions undetectable levels of β-Galactosidase are expressed, but in the presence of HIV-1, the viral Tat protein is able to activate the HIV-1-LTR in the JC53BL cells resulting in the increased expression of the β-Gal enzyme. The expression can be measured using the ‘FluorAce β-Galactosidase reporter’ assay. The levels of β-Gal are directly proportional to the levels of Tat (up to a threshold) allowing virus quantification. Compounds that inhibit virus replication will give rise to a reduced signal and a dose-response curve for each compound can be generated. This is then used to determine the IC50 for each compound, a measure of the compound's potency.

[3] = Human immunodeficiency virus 1, 72 h, read-out: Antiviral Activity (S8737E, μM), HIV-1 NL4.3 replication in MT2 cells, 3 days, β-Gal readout in JC53BL cells

Row | Structure (SMILES) | IC50 [1] | IC50 [2, 3] | IC50 ([1]; table values) | IC50 ([2]; read-out: Antiviral Activity (S8737E), HIV-1 NL4.3 replication in MT2 cells, 3 days, β-Gal readout in JC53BL cells)
1 | Cc1ccc(-c2c([C@@H](OC(C)(C)C)C(=O)O)c(C)nc3sc4c(c23)CCCC4)c(O)c1 (single isomer, unassigned) [48, first eluting enantiomer] | 4.12 µM | 0.089 µM | – | –
2 | Cc1ccc(-c2c(C(OC(C)(C)C)C(=O)O)c(C)nc3sc4c(c23)CCCC4)c(O)c1 (single isomer, unassigned) [48, second eluting enantiomer] | 0.576 µM | 0.013 µM | – | –
3 | Cc1nc2sc3c(c2c(-c2ccc(Cl)cc2O)c1[C@H](OC(C)(C)C)C(=O)O)CCCC3 (single isomer, unassigned) [Atropisomer 46A] | 0.558 µM | 0.014 µM | – | –
4 | Cc1nc2sc3c(c2c(-c2cncnc2)c1C(OC(C)(C)C)C(=O)O)CCCC3 (stereo not drawn) [Example 1, Tert-butoxy(2-methyl-4-pyrimidin-5-yl-5,6,7,8-tetrahydro[1]benzothieno[2,3-b]pyridin-3-yl)acetic acid] | – | > 20 µM | – | –
5 | Cc1nc2sc3c(c2c(-c2ccc4scnc4c2)c1C(OC(C)(C)C)C(=O)O)CCCC3 (stereo not drawn) [Example 4] | – | 0.282 µM | 3.48 µM | –
6 | CCc1ccc(-c2c(C(OC(C)(C)C)C(=O)O)c(C)nc3sc4c(c23)CCCC4)c(O)c1 (stereo not drawn) [Example 5] | – | 0.155 µM | 2.7 µM | –
7 | Cc1nc2sc3c(c2c(-c2ccc4cn[nH]c4c2)c1C(OC(C)(C)C)C(=O)O)CCCC3 (stereo not drawn) [Example 6] | – | 0.305 µM | 2.63 µM | –
8 | COc1ccc(-c2c(C(OC(C)(C)C)C(=O)O)c(C)nc3sc4c(c23)CCCC4)cn1 (stereo not drawn) [Example 7] | – | 0.436 µM | 9.25 µM | –
9 | CCn1cc(-c2c(C(OC(C)(C)C)C(=O)O)c(C)nc3sc4c(c23)CCCC4)cn1 (stereo not drawn) [Example 8] | – | 0.624 µM | 23.8 µM | –
10 | Cc1nc2sc3c(c2c(-c2ccc(C(F)(F)F)nc2)c1C(OC(C)(C)C)C(=O)O)CCCC3 (stereo not drawn) [Example 9] | – | 0.683 µM | 11.7 µM | –
11 | Cc1nc2sc3c(c2c(-c2ccc4cnn(C)c4c2)c1C(OC(C)(C)C)C(=O)O)CCCC3 (stereo not drawn) [Example 10] | – | 0.795 µM | 7.87 µM | –
12 | Cc1nc2sc3c(c2c(-c2ccc4cnn(C)c4c2)c1C(OC(C)(C)C)C(=O)O)CCCC3 (stereo not drawn) [Example 11] | – | – | 12.2 µM | 0.814 µM
13 | Cc1nc2sc3c(c2c(-c2ccc4c(cnn4C)c2)c1C(OC(C)(C)C)C(=O)O)CCCC3 (stereo not drawn) [Example 12] | – | 0.941 µM | 5.13 µM | –
14 | Cc1nc2sc3c(c2c(-c2ccccc2CO)c1C(OC(C)(C)C)C(=O)O)CCCC3 (stereo not drawn) [Example 13] | – | 0.957 µM | 56.3 µM | –
15 | COc1cc(-c2c(C(OC(C)(C)C)C(=O)O)c(C)nc3sc4c(c23)CCCC4)ccn1 (stereo not drawn) [Example 14] | – | 1.24 µM | 28.4 µM | –
16 | Cc1nc2sc3c(c2c(-c2ccc(C#N)cc2)c1C(OC(C)(C)C)C(=O)O)CCCC3 (stereo not drawn) [Example 15] | – | 1.28 µM | 14.8 µM | –
17 | Cc1nc2sc3c(c2c(-c2ccccc2O)c1C(OC(C)(C)C)C(=O)O)CCCC3 (stereo not drawn) [Example 16] | – | 1.73 µM | 57.4 µM | –
18 | Cc1nc2sc3c(c2c(-c2ccc4nccn4c2)c1C(OC(C)(C)C)C(=O)O)CCCC3 (stereo not drawn) [Example 17] | – | 1.78 µM | > 100 µM | –
19 | Cc1nc2sc3c(c2c(-c2cnc4ccoc4c2)c1C(OC(C)(C)C)C(=O)O)CCCC3 (stereo not drawn) [Example 18] | – | 1.84 µM | 30.3 µM | –
20 | Cc1nc2sc3c(c2c(-c2cccc(-c4nccn4C)c2)c1C(OC(C)(C)C)C(=O)O)CCCC3 (stereo not drawn) [Example 19] | – | 1.9 µM | 46.5 µM | –
21 | Cc1nc2cc(-c3c(C(OC(C)(C)C)C(=O)O)c(C)nc4sc5c(c34)CCCC5)ccc2s1 (stereo not drawn) [Example 20] | – | 2.01 µM | 11.8 µM | –
22 | CCOC(C(=O)O)c1c(C)nc2sc3c(c2c1-c1ccc2nsnc2c1)CCCC3 (stereo not drawn) [Example 21] | – | 2.17 µM | 64.8 µM | –

Row | Structure (SMILES) | IC50 [1] | IC50 [2, 3] | IC50 ([1]; table values) | IC50 ([2]; read-out: Antiviral Activity (S8737E), HIV-1 NL4.3 replication in MT2 cells, 3 days, β-Gal readout in JC53BL cells)
23 | Cc1nc2ccc(-c3c(C(OC(C)(C)C)C(=O)O)c(C)nc4sc5c(c34)CCCC5)cc2s1 (stereo not drawn) [Example 22] | – | 2.73 µM | 12.8 µM | –
24 | CCOC(C(=O)O)c1c(C)nc2sc3c(c2c1-c1ccc2cn[nH]c2c1)CCCC3 (stereo not drawn) [Example 23] | – | 2.73 µM | 33.1 µM | –
25 | Cc1nc2sc3c(c2c(-c2cccc4c2cnn4C)c1C(OC(C)(C)C)C(=O)O)CCCC3 (stereo not drawn) [Example 24] | – | 2.81 µM | 7.59 µM | –
26 | CCOC(C(=O)O)c1c(C)nc2sc3c(c2c1-c1ccccc1O)CCCC3 (stereo not drawn) [Example 25] | – | 4.07 µM | > 100 µM | –
27 | Cc1nc2sc3c(c2c(-c2cccc(C#N)c2)c1C(OC(C)(C)C)C(=O)O)CCCC3 (stereo not drawn) [Example 26] | – | 4.51 µM | > 100 µM | –
28 | Cc1nc2sc3c(c2c(-c2cccc(CO)c2)c1C(OC(C)(C)C)C(=O)O)CCCC3 (stereo not drawn) [Example 27] | – | 4.64 µM | 57.5 µM | –
29 | Cc1cc(C)n(-c2cccc(-c3c(C(OC(C)(C)C)C(=O)O)c(C)nc4sc5c(c34)CCCC5)c2)n1 (stereo not drawn) [Example 28] | – | 5.61 µM | 29.6 µM | –
30 | Cc1nc2sc3c(c2c(-c2ccc(N(C)C)nc2)c1C(OC(C)(C)C)C(=O)O)CCCC3 (stereo not drawn) [Example 29] | – | 5.73 µM | 64.6 µM | –
31 | Cc1nc2sc3c(c2c(-c2cnc4cc[nH]c4c2)c1C(OC(C)(C)C)C(=O)O)CCCC3 (stereo not drawn) [Example 30] | – | 6.63 µM | 15.5 µM | –
32 | CCOC(C(=O)O)c1c(C)nc2sc3c(c2c1-c1ccc2scnc2c1)CCCC3 (stereo not drawn) [Example 31] | – | 6.66 µM | > 100 µM | –
33 | Cc1nc2sc3c(c2c(-c2ccc4[nH]ncc4c2)c1C(OC(C)(C)C)C(=O)O)CCCC3 (stereo not drawn) [Example 32] | – | 7.65 µM | > 100 µM | –
34 | CCOC(C(=O)O)c1c(C)nc2sc3c(c2c1-c1ccc(C(F)(F)F)nc1)CCCC3 (stereo not drawn) [Example 33] | – | 8.19 µM | > 100 µM | –
35 | CCOC(C(=O)O)c1c(C)nc2sc3c(c2c1-c1ccccc1CO)CCCC3 (stereo not drawn) [Example 34] | – | 8.97 µM | > 100 µM | –
36 | CCOC(C(=O)O)c1c(C)nc2sc3c(c2c1-c1ccc2cnn(C)c2c1)CCCC3 (stereo not drawn) [Example 35] | – | 10.7 µM | > 100 µM | –
37 | Cc1nc2sc3c(c2c(-c2c[nH]c4nccc-4c2)c1C(OC(C)(C)C)C(=O)O)CCCC3 (stereo not drawn) [Example 36] | – | 12 µM | > 100 µM | –
38 | Cc1cc(-c2c(C(OC(C)(C)C)C(=O)O)c(C)nc3sc4c(c23)CCCC4)ccn1 (stereo not drawn) [Example 37] | – | 13.9 µM | > 100 µM | –
39 | Cc1nc2sc3c(c2c(-c2cccc(-n4cccn4)c2)c1C(OC(C)(C)C)C(=O)O)CCCC3 (stereo not drawn) [Example 38] | – | 15.1 µM | 97.5 µM | –
40 | COc1ncc(-c2c(C(OC(C)(C)C)C(=O)O)c(C)nc3sc4c(c23)CCCC4)cn1 (stereo not drawn) [Example 39] | – | 15.5 µM | > 100 µM | –
41 | CCOC(C(=O)O)c1c(C)nc2sc3c(c2c1-c1cnn(CC)c1)CCCC3 (stereo not drawn) [Example 41] | – | 17.7 µM | > 100 µM | –
42 | CCOC(C(=O)O)c1c(C)nc2sc3c(c2c1-c1ccc(OC)nc1)CCCC3 (stereo not drawn) [Example 42] | – | 18.1 µM | > 100 µM | –
43 | CCOC(C(=O)O)c1c(C)nc2sc3c(c2c1-c1ccc2c(cnn2C)c1)CCCC3 (stereo not drawn) [Example 43] | – | 18.9 µM | > 100 µM | –
44 | Cc1nc2sc3c(c2c(-c2ccc(Cl)cc2)c1[C@H](OC(C)(C)C)C(=O)O)CCCC3 [Example 44, (2S)-tert-butoxy[4-(4-chlorophenyl)-2-methyl-5,6,7,8-tetrahydro[1]benzothieno[2,3-b]pyridin-3-yl]acetic acid] | 0.576 µM | 0.036 µM | – | –
